Source: patent publication US12049474B2, “Nucleoside prodrugs and uses related thereto” (Emory University, priority 2019, dated 2024)
pIC50: −log10 of the molar value. Where two headings read alike, the source gives them in different places.

Key:
CYP2D6 = CYP2D6 (Homo sapiens (Human), UniProt P10635); experiment: biochemical; assay type: biochemical
Method: (§1) The CYP450 inhibition assays utilized microsomes from insect cells expressing human recombinant individual cDNA-expressed CYP isoforms 3A4 and 2D6, as well as the fluorogenic probe that produces fluorescent metabolite. Standard inhibitors were co-incubated with fluorogenic substrates and their inhibitory potential (IC50) was determined. Assay conditions in terms of CYP450 protein concentration and time of incubation were standardized, enzyme kinetics parameters of each fluorescent probe substrate were estimated and IC50 values of inhibitors were determined and validated on different days to check reproducibility.
(§2) A 100 mM sodium phosphate buffer was prepared and adjusted to pH 7.4. In a separate falcon tube, a 2× enzyme/substrate (E/S) solution was prepared in phosphate buffer. The final concentration of CYP2D6 (CORNING®) and […] (AMMC) was 10 nM and 4 μM, and CYP3A4 (CORNING®) and 7-benzyloxy-4-(trifluoromethyl) coumarin (BFC) was 20 nM and 40 μM, respectively. In a separate falcon tube, a 2×NADPH regenerating system (NRS) was prepared in phosphate buffer. The final concentration for each component in the assay was as follows: • CYP2D6 assay: 0.008 mM NADPH, 3.3 mM glucose 6-phosphate, 0.4 U of glucose-6-phosphate dehydrogenase per mL
(§3) Both enzymatic assays were conducted in a 96-well microtiter plate (Black, CORNING® COSTAR®) with a final volume of 100 μL. Preparation of the plate began with the addition of 74 μL of the E/S in the first well, and 50 μL to all subsequent wells (from 2-11). The test compounds (1 μL) were dissolved in the first well to give the first row a final volume of 75 μL. A 1:3 serial dilution of the test compound was conducted by removing 25 μL from the first well and diluting it with the second and so forth until the tenth row. Final concentrations yielded a range from 200 μM-0.01 μM. Well no. 11 contained no inhibitor, and well no. 12 contained no enzyme. Both were used as controls for background fluorescence. The plate was incubated for 30 min at 37° C. After incubation, the reaction was initiated by the addition of 50 μL of the 2×NRS to each well.
Immediately (within 1 min) the fluorescence was measured using a microplate reader (BIOTEK® Synergy Neo2). CYP2D6 was monitored at Ex/Em=410/460 nm, and CYP3A4 monitored at Ex/Em=410/538 nm in kinetic mode that scanned every 5 min for 60 mins. Data was exported and analyzed using Graph Pad Prism 7. […] The IC50 value was derived after the data was fitted on a 10-point curve using a four-parameter logistic regression model.

CYP3A4 = CYP3A4 (Homo sapiens (Human), UniProt P08684); experiment: Fluorometric CYP450 enzyme inhibition assay, CYP3A4; assay type: biochemical
Method: as §1, §2
as §3, with “The test compounds (1 μL) were dissolved in the first well to give the first row a final volume of 75 μL.” left out
Immediately (within 1 min) the fluorescence was measured using a microplate reader (BIOTEK® Synergy Neo2). […] Data was exported and analyzed using Graph Pad Prism 7. […] The IC50 value was derived after the data was fitted on a 10-point curve using a four-parameter logistic regression model.

[1] = Metabolic stability assay in human liver microsomes (HLM); assay type: in vitro ADME; conditions: NADPH, sampled 0-120 min; for half-life at 3 µM: pH 7.4, 3 μM test compound, read-out: HLM t1/2
Method: The LC-MS/MS analysis was performed using Agilent 1260 Infinity II HPLC, coupled with an Agilent G6460 triple quadrupole mass spectrometer (Agilent Technologies, USA). All the data were acquired employing Agilent 6460 Quantitative Analysis data processing software.
Reverse-phase HPLC separation for each compound was achieved either on an Agilent Porshell 120 EC-C8 column (2.1×50 mm, 2.7 μm), or on an Agilent Zorbax XDB C18 column (2.1×50 mm, 3.5 μm) with a mobile phase composed of methanol-water-formic acid or acetonitrile-water-formic acid (0.1%) at a flow rate of 0.5 mL/min (changes for some compounds). Each method was developed in the presence of an internal standard (ISTD) d5-7-ethoxy coumarin. The column temperature was maintained at 40° C. for most of the samples otherwise noted. The detection was operated in the Agilent JetStream electrospray positive ionization using multiple reaction monitoring mode (MRM).
Other MS conditions were as follows: dwell time 100 ms; gas flow 10 L/min; nebulizer pressure 45 psi; delta EMV 200 V; fragmentor voltage and collision energy for individual compounds vary.
Test compounds were dissolved in 100% DMSO or 100% MeOH to make 10 mM stock solutions. Verapamil (Sigma Aldrich) aided as a positive control and was dissolved in 100% DMSO to make 10 mM stock solutions. The 10 mM stock solution of test and control compounds were further diluted in potassium phosphate buffer (100 mM, pH 7.4) to 500 μM to ensure the organic solvent content was <0.2%. Human liver microsomes (HLMs) were purchased from Xenotech at 20 mg/mL. NADPH (Sigma Aldrich) 10 mM stocks were prepared in deionized water.
The HLM assay was prepared in a 1.5 mL Eppendorf tube with a final volume of 1100 μL for duplicate runs. Each reaction contained phosphate buffer (928.4 μL), liver microsomes (55 μL), and test compound resulting in a final concentration of 3 μM (6.6 μL of 500 μM). The reaction was initiated with 110 μL of 10 mM NADPH. Aliquots (100 μL) were removed in duplicate at 0, 15, 30, 60, 120 min (for prodrug compounds) and 0, 5, 10, 15, 30 min (verapamil, positive control compound) time intervals and quenched in cold […] of 100% methanol which contained internal standard (ISTD: d5-7-ethoxy coumarin 4 μM). Before centrifugation each of the aliquoted tubes were vortexed to make sure compounds were in the solution. The aliquots were centrifuged at 12,000 g for 5 min and the supernatant removed and placed in an LC-MS vial. Each time point was assessed using LC-MS and the area, based on the extracted ion, was integrated with respect to the ISTD. Positive controls were conducted at a final volume of 550 μL to give each time point in a single run. A no-NADPH negative control with test or control compound was performed in a single run (150 μL) at the longest time point. Controls were processed and analyzed like the test compounds. Each time point was run in duplicates followed by in-between blank washes to avoid the carryover and to equilibrate the column.

[2] = human recombinant CYP2D6, AMMC substrate, read-out: CYP450 IC50 2D6
[3] = human recombinant CYP3A4, BFC substrate, read-out: CYP450 IC50 3A4

CYP3A4, sequence (P08684 whole entry): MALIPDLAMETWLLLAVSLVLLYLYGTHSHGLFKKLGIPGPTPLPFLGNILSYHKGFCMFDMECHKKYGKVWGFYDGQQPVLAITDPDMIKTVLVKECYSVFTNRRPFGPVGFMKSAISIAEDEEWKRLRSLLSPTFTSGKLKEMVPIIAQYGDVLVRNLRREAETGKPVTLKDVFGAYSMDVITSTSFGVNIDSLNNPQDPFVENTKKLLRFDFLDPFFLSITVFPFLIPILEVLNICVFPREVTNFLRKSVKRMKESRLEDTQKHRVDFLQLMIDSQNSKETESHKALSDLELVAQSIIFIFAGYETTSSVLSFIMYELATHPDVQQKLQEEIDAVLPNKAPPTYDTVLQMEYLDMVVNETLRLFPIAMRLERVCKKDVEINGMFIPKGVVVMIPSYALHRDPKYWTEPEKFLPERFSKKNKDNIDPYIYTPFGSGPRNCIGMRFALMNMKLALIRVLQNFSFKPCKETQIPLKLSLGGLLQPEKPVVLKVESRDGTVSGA
CYP2D6, sequence (P10635 whole entry, canonical isoform): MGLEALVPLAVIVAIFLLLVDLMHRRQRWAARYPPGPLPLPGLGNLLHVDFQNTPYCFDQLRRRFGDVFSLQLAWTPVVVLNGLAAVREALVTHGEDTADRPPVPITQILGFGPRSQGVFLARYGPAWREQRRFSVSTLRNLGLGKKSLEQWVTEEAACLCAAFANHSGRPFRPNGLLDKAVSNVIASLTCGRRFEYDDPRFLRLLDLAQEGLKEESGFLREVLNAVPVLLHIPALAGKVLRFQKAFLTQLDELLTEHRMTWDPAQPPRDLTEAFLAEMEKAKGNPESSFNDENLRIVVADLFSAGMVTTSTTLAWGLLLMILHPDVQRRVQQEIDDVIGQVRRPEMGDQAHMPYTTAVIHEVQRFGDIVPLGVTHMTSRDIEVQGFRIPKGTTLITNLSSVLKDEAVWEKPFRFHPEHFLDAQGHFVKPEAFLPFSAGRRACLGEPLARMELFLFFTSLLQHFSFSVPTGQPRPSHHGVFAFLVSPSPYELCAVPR

Row | Compound | pIC50 (CYP2D6; [2]) | pIC50 (CYP3A4; [3]) | half-life at 3 µM [1] [min] | other results
1 | CCCCSCCCCCCCCCCCCCCCOP(=O)(O)CO[C@H](C)Cn1cnc2c(N)ncnc21 [MD-1-221, Ammonium 15-(butylthio)pentadecyl (R)-(((1-(6-amino-9H-purin-9-yl)propan-2-yl)oxy)methyl) phosphonate] | < 4.70 | < 4.70 |  | 
2 | CCCCCCCCCCCCCCOCCCCCOP(=O)(O)COC(C)Cn1cnc2c(N)ncnc21.N (racemic) [NP-PD-154, Ammonium [rac-(1R)-2-(6-aminopurin-9-yl)-1-methyl-ethoxy]methyl-(5-tetradecoxypentoxy)phosphinate] |  |  | 29 | 
3 | C#CCCCCCCCCCCCCCCCCSCCCOP(=O)(O)CO[C@H](C)Cn1cnc2c(N)ncnc21.N [BI-1-057, Ammonium 3-(octadec-17-yn-1-ylthio)propyl (R)-(((1-(6-amino-9H-purin-9-yl)propan-2-yl)oxy)methyl)phosphonate] | 4.69 | 4.43 | > 120 | 
4 | C[C@H](Cn1cnc2c(N)ncnc21)OCP(=O)(O)OCCCSCCCCCCCCCCCOc1ccccc1.N [MD-1-223, Ammonium 3-((11-phenoxyundecyl)thio)propyl (R)-(((1-(6-amino-9H-purin-9-yl)propan-2-yl)oxy)methyl)phosphonate] | < 4.70 | < 4.70 | 15 | 
5 | C[C@H](Cn1cnc2c(N)ncnc21)OCP(=O)(O)OCCCSCCCCCCCCCCCSc1ccccc1.N [MD-1-119, Ammonium 3-((11-(phenylthio)undecyl)thio)propyl (R)-(((1-(6-amino-9H-purin-9-yl)propan-2-yl)oxy)methyl)phosphonate] | 4.44 | 4.96 | 12 | 
6 | CCCCCCCCCCCCCSCCCCCCOP(=O)(O)CO[C@H](C)Cn1cnc2c(N)ncnc21 [MD-1-219, Ammonium 6-(tridecylthio)hexyl (R)-(((1-(6-amino-9H-purin-9-yl)propan-2-yl)oxy)methyl) phosphonate] |  |  | 66 | 
7 | CCCCCCCCCCCCCCCOCCCCOP(=O)(O)COC(C)Cn1cnc2c(N)ncnc21.N (racemic) [NP-PD-150, Ammonium 4-pentadecoxybutoxy-[[rac-(1R)-2-(6-aminopurin-9-yl)-1-methyl-ethoxy]methyl]phosphinate] |  |  | 48 | 
8 | CCCCCCCCCCSCCCCCCCCCOP(=O)(O)CO[C@H](C)Cn1cnc2c(N)ncnc21.N [MD-1-122, Ammonium 9-(decylthio)nonyl (R)-(((1-(6-amino-9H-purin-9-yl)propan-2-yl)oxy)methyl)phosphonate] |  |  | 13 | 
9 | N.[2H]C([2H])([2H])C([2H])([2H])CCCCCCCCCCCCCOP(=O)(O)CO[C@H](C)Cn1cnc2c(N)ncnc21 [EJM-8-030, Ammonium pentadecyl-14,14,15,15,15-d5 (R)-(((1-(6-amino-9H-purin-9-yl)propan-2-yl)oxy)methyl)phosphonate] |  |  | 20 | pIC50 (CYP2D6): 4.42; pIC50 (CYP3A4): 4.28
10 | Ammonium 3-((14-trimethylsilyl)tetradec-13-yn-1-yl)propyl(R)-(((1-(6-amino-9H-purin-9-yl)propan-2-yl)oxy)methyl)phosphonate [NP-PD-130] | 4.66 | < 4.70 |  | HLM t1/2 ([1]; 3 μM test compound): >120 min
11 | C#CCCCCCCCCCCCCCCSCCCOP(=O)(O)CO[C@H](C)Cn1cnc2c(N)ncnc21 [MD-1-182, Ammonium 3-(hexadec-15-yn-1-ylthio)propyl (R)-(((1-(6-amino-9H-purin-9-yl)propan-2-yl)oxy)methyl) phosphonate] |  |  | 96 | 
12 | C[C@H](Cn1cnc2c(N)ncnc21)OCP(=O)(O)OCCCCCCCCCCCCCCCCCC[Si](C)(C)C.N [NP-PD-051, Ammonium [(1R)-2-(6-aminopurin-9-yl)-1-methyl-ethoxy]methyl-(18-trimethylsilyloctadecoxy)phosphinate] | 4.79 | 4.29 | > 120 | 
13 | C[C@H](Cn1cnc2c(N)ncnc21)OCP(=O)(O)OCCCSCCCCCCCCCCCCc1ccccc1.N [MD-1-184, Ammonium 3-((12-phenyldodecyl)thio)propyl (R)-(((1-(6-amino-9H-purin-9-yl)propan-2-yl)oxy)methyl)phosphonate] | < 4.70 |  | 69 | 
14 | C[C@H](Cn1cnc2c(N)ncnc21)OCP(=O)(O)OCCCSCCCCCCCCCCC#Cc1ccccc1.N [MD-1-183, Ammonium 3-((12-phenyldodec-11-yn-1-yl)thio)propyl (R)-(((1-(6-amino-9H-purin-9-yl)propan-2-yl)oxy)methyl)phosphonate] | < 4.70 |  | 72 | 
15 | CCCCCCCCCCCCCCCCCOCCOP(=O)(O)COC(C)Cn1cnc2c(N)ncnc21.N (racemic) [NP-PD-157, Ammonium 2-heptadecoxyethoxy-[[rac-(1R)-2-(6-aminopurin-9-yl)-1-methyl-ethoxy]methyl]phosphinate] |  |  | 35 | 
16 | CCCCCCCCCCCCCCCCCCCCSCCCOP(=O)(O)CO[C@H](C)Cn1cnc2c(N)ncnc21.N [MD-1-186, Ammonium 3-(icosylthio)propyl (R)-(((1-(6-amino-9H-purin-9-yl)propan-2-yl)oxy)methyl)phosphonate] |  |  | > 120 | 
17 | CCCCCCCCCCCCCCCCCCSCCCOP(=O)(O)CO[C@H](C)Cn1cnc2c(N)ncnc21 [MD-1-185, Ammonium 3-(octadecylthio)propyl (R)-(((1-(6-amino-9H-purin-9-yl)propan-2-yl)oxy)methyl) phosphonate] |  |  | > 120 | 
